Calls of active or inactive are those of the source.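 How the source made its calls: active means compounds giving half or more protection of infected cells from virus-caused growth loss, again on retest; inactive means the rest.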

For the test, the system named is CEM cells HIV-1 protection, formazan growth assay. Nature of the test: NCI AIDS Antiviral Assay. The note with it: for IC50: measured here: growth of uninfected CEM cells. In short, it runs like this:
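Category rules: moderately active means at least 50% protection on retest, and confirmed active means 100% protection reproducibly. The underlying data came from a formazan growth assay in HIV-1-infected CEM cells.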

With `CC(C)N=C(N)CSS(=O)(=O)O`, the EC50 is more than 200 µM and the IC50 is more than 200 µM.

In the case of `COc1ccc(N2C(=O)C(N3C(=O)C=CC3=O)C2C=O)cc1` (stereo not given), the EC50 is more than 166 µM and the IC50 was more than 166 µM.

With `COCN1COCN(COC)C1=O`, the EC50 was more than 646 µM and the IC50 is more than 646 µM.

On to `C=C1c2ccccc2CCN1CC(=O)CC1C=CCS1(=O)=O` (stereo not given), for which the EC50 is more than 407 µM and the IC50 was more than 407 µM.

As to `CSC(SC)=C1C(=O)NN=C1C`, the EC50 is more than 200 µM and the IC50 was more than 200 µM.

Regarding `O=C(N/N=C1\CCc2ccccc21)N/N=C1\CCc2ccccc21`, the EC50 was more than 200 µM and the IC50 is more than 200 µM.

On to `OCCN1CCN(CCO)Cc2ccccc2OCCOc2ccccc2C1`, for which the EC50 was more than 245 µM and the IC50 came to 97.7 µM.

With `Cc1c2c(n(CCc3ccccc3)c1C)NN=C(C#N)S2(=O)=O`, the EC50 was more than 200 µM and the IC50 was more than 200 µM.

Consider `COc1ccc(Cc2c3cc(O)c(=O)cc-3ccn2C)cc1OC`, for which the EC50 was more than 15.8 µM and the IC50 stood at 8.13 µM.

In the case of `CSc1nc(Nc2cccc(C(F)(F)F)c2)c2c(N)nn(C)c2n1`, the EC50 was more than 200 µM and the IC50 was more than 200 µM.

As to `CC(=O)C1CCC2C1(C)CC1OC13C21C=CC2(CC(O)CCC23C)C2C(=O)OC(=O)C21` (stereo not given), the EC50 is more than 302 µM and the IC50 was more than 302 µM.

With `O=C(O)c1cc(O)c2c(c1)C([C@@H]1c3cccc(O)c3C(=O)c3c(O)cc(C(=O)O)cc31)c1cccc(O)c1C2=O` (stereo not given in full), the EC50 was more than 200 µM and the IC50 is 31.6 µM.

With `C/C(CC(=O)Nc1ccc(C)c(C)c1)=N\NC(N)=S`, the EC50 is more than 891 µM and the IC50 is 117 µM.

Regarding `COc1cc(OC)c(CSCC(NC(=O)OCC2c3ccccc3-c3ccccc32)C(=O)O)c(OC)c1` (stereo not given), the EC50 was more than 200 µM and the IC50 is 105 µM.

With `N#Cc1ncn(Cc2ccccc2)c1N`, the EC50 was more than 200 µM and the IC50 is more than 200 µM.

Consider `Cc1c(/C=N/NC(=O)c2ccccc2O)c(=O)n(-c2ccccc2)n1C`, for which the EC50 is more than 200 µM and the IC50 stood at 69.2 µM.

As for `C1=CC(N(c2ccccc2)C2C=CCCC2)CCC1` (stereo not given), the outcome was inactive.

Take `C=C=C(Sc1ccccc1)C(C)(C)OC(C)=O`: the EC50 is more than 50.1 µM and the IC50 amounted to 14.5 µM.

Turning to `Cc1c(C)c(CC(=O)N2CC2)c(C)c(C)c1CC(=O)N1CC1`, the EC50 was more than 200 µM and the IC50 was 0.794 µM.

Consider `O=c1oc2ccccc2c(O)c1C(c1cc(OCc2ccccc2)cc(OCc2ccccc2)c1)c1c(O)c2ccccc2oc1=O`, for which the EC50 was more than 200 µM and the IC50 turned out to be 9.55 µM.

With `CC(=O)Oc1cc(/C=C(\C#N)C(=O)NCCCCNC(=O)/C(C#N)=C/c2cc(OC(C)=O)c(OC(C)=O)c(OC(C)=O)c2)cc(OC(C)=O)c1OC(C)=O`, the EC50 was more than 200 µM and the IC50 came to 21.9 µM.

Turning to `CN(C)C1C(=O)C(C(=O)NCN2CCCC2)=C(O)C2(O)C(=O)C3=C(O)c4c(O)cccc4C(C)(O)C3CC12` (stereo not given), the EC50 was more than 63.1 µM and the IC50 is 53.7 µM.

As to `Cn1nc(N)nc1N=S(C)(C)=N`, the EC50 is more than 1320 µM and the IC50 was more than 1320 µM.

Turning to `NC(=O)CNC(=O)c1ccc(NC(=O)c2ccccc2SC(=O)CCCC[n+]2ccccc2)cc1`, the EC50 is 15.8 µM and the IC50 is 50.1 µM.

Take `O=C(NC(=O)c1c(F)cccc1F)Nc1ncc(Br)cc1Br`: the EC50 was more than 200 µM and the IC50 is more than 200 µM.

Regarding `OC1(C2(O)CCC2)CCC1`, the EC50 is more than 200 µM and the IC50 was more than 200 µM.

With `CC/C=C\C/C=C\C/C=C\C/C=C\CCC(=O)OC(COC(=O)CCCCCCC/C=C\C/C=C\C/C=C\CC)COC1OC(CO)C(O)C(O)C1O` (stereo not given), the EC50 is more than 38 µM and the IC50 was more than 38 µM.

As to `Cc1cc2c(=O)cc(-c3ccncc3)oc2c(C(N)=O)c1C`, the EC50 is more than 151 µM and the IC50 came to 70.8 µM.

Source of the values: PubChem BioAssay AID179 (DTP/NCI, 2004).
